Test results from publication PMC2009657, “Mammalian cell transformation in vitro. Six tests for carcinogenicity” (British Journal of Cancer, 1978).

Test system: tester cells of the transformation assay
Settings: not given

Molecule	Toxicity in the assay
C=CCl [Vinyl chloride]	No toxicity observe(d

Test system: not given
Settings: in vivo; cited from earlier work

Molecule	Carcinogenicity, Lit.
Nc1ccc(Cc2ccc(N)c(Cl)c2)cc1Cl	+
c1ccc2cc3c(ccc4ccccc43)cc2c1 [1,2-Benzanthracene]	+
Oc1cccc2ccccc12 [1-Naphthol]	-
O=C(O)COc1ccc(Cl)cc1Cl [2,4-Dichlorophenoxyacetate]	-
O=[N+]([O-])c1ccc(F)c([N+](=O)[O-])c1 [2,4-Dinitrofluorobenzene]	+
Nc1ccc2c(c1)Cc1cc(N)ccc1-2 [2,7-Diaminofluorene]	+
CC(=O)Nc1ccc2c(c1)Cc1ccccc1-2 [2-Acetylaminofluorene]	+
Nc1ccccc1-c1ccccc1 [2-Aminobiphenyl]	+
Nc1ccc2c(ccc3c4ccccc4ccc23)c1 [2-Aminochrysene]	+
Nc1ccc2ccccc2c1S(=O)(=O)O [2-Aminonaphthalene-1-sulphonic acid]	-
Nc1ccc2ccccc2c1 [2-Naphthylamine]	+
O=[N+]([O-])c1ccccc1-c1ccccc1 [2-Nitrobiphenyl]	+
Nc1ccc(-c2ccc(N)c(Cl)c2)cc1Cl [3,3'-Dichlorobenzidine]	+
COc1cc(-c2ccc(N)c(OC)c2)ccc1N [3,3'-Dimethoxybenzidine]	+
Cc1cc(-c2ccc(N)c(C)c2)ccc1N [3,3'-Dimethylbenzidine]	+
c1ccc2c(c1)ccc1cc3ccc4ccccc4c3nc12 [3,4,5,6-Dibenzacridine]	+
c1ccc2c(c1)cc1ccc3cc4ccccc4c4ccc2c1c34 [3,4,9,10-Dibenzpyrene]	+
c1ccc2c(c1)cc1ccc3cccc4ccc2c1c34 [3,4-Benzpyrene]	+
Nc1ccc2ccc3cccc4ccc1c2c34 [3-Aminopyrene]	+
CC(=O)Nc1cccc2c1-c1ccccc1C2 [4-Acetylaminofluorene]	-

Molecule	Carcinogenicity, Lit.
Nc1ccc(N=Nc2ccccc2)cc1 [4-Aminoazobenzene]	+
Nc1ccc(-c2ccccc2)cc1 [4-Aminobiphenyl]	+
CN(C)c1ccc(N=Nc2ccccc2)cc1 [4-Dimethylaminoazobenzene]	+
Nc1cc2c3ccccc3ccc2c2ccccc12 [6-Aminochrysene]	+
Cc1c2ccccc2c(C)c2ccccc12 [9,10-Dimeuthylanthracene]	+
Cc1ccc2cc3c(ccc4ccccc43)c3c2c1CC3 [20-Methylcholanthrene]	+
Nc1ccccc1 [Aniline]	-
c1ccc2cc3ccccc3cc2c1 [Anthracene]	-
Nc1ccccc1C(=O)O [Anthranilic acid]	-
O=C1c2ccccc2C(=O)c2ccccc21 [Anthraquinone]	-
O=C1c2ccccc2-c2cccc3cccc1c23 [Benzathrone]	-
Nc1ccc(-c2ccc(N)cc2)cc1 [Benzidine]	+
c1ccc2[nH]cnc2c1 [Benzimidazole]	-
O=C(O)c1ccccc1 [Benzoic acid]	-
c1ccc(-c2ccccc2)cc1 [Biphenyl]	-
ClCOCCl [Bis(Chloromethyl)ether]	+
O=S1(=O)CCCCO1 [Butanesultone]	+
Cc1ccc(O)c(N=Nc2c(O)cc(S(=O)(=O)O)c3ccccc23)c1 [Calmagite]	-
O=C(O)CCCc1ccc(N(CCCl)CCCl)cc1 [Chlorambucil]	+
NC1CCCCC1 [Cyclohexylamine]	-

Molecule	Carcinogenicity, Lit.
O=P1(N(CCCl)CCCl)NCCCO1 (stereo not shown) [Cyclophosphamide]	+
Clc1ccc(C(c2ccc(Cl)cc2)C(Cl)(Cl)Cl)cc1 [D.D.T.]	-
C1CCC(NC2CCCCC2)CC1 [Dicyclohexylamine]	-
ClC1=C(Cl)[C@]2(Cl)[C@@H]3[C@@H]4C[C@@H]([C@H]5O[C@@H]45)[C@@H]3[C@@]1(Cl)C2(Cl)Cl [Dieldrin]	-
CCN(CC)N=O [Diethylnitrosamine]	+
CC/C(=C(/CC)c1ccc(O)cc1)c1ccc(O)cc1 [Diethylstilboestrol]	+
CCOS(C)(=O)=O [Ethyl methanesulphonate]	+
CN(C)P(=O)(N(C)C)N(C)C [Hexamethylphosphoramide]	+
NN [Hydrazine]	+
c1ccc2cc(Nc3ccc(Nc4ccc5ccccc5c4)cc3)ccc2c1 [N,N'-Bis(2-naphthyl)-p-phenylenediamine]	-
CC(C(O)c1ccccc1)N(C)N=O (stereo not shown) [N-Nitrosoephedrine]	+
c1ccc(Nc2ccc3ccccc3c2)cc1 [N-phenyl-2-naphthylamine]	-
c1ccc2ccccc2c1 [Naphthalene]	-
c1cc2cccc3c4cccc5cccc(c(c1)c23)c54 [Perylene]	-
C=CCc1ccc2c(c1)OCO2 [Safrole]	+
COc1ccc(N)cc1 [p-Anisidine]	-
Croton oil	+
Cyanocobalamin [Cyanocobalamin (B12)]	-
Cycasin acetate	+
Morgan's base	+
